Experiments:
[1] = tested on: Drosophila N^spl-1 mutation in the Notch receptor gene; experiment: N^spl-1 small rough eye phenotype after treatment; type: in vivo; settings: data not shown
From the text: Potential therapeutic compounds may be assayed for their ability to elevate expression of the Nipped-B gene which will enhance the N^spl-1 phenotype, resulting in a decrease in the size of the eye relative to similar untreated subjects.
(§1) PLoS One; 4(7):e6202, herein incorporated by reference.
The N^spl-1 mutation in the Notch receptor gene causes a small rough eye phenotype. […] (Rollins et a al., (1999) Genetics; 152 (2):577-93).

[2] = tested on: yeast scc2 and mis4 mutants; experiment: Growth of temperature-sensitive cohesin/NIPBL-ortholog mutant yeast strains at semipermissive temperature (optical density); type: cell-based, Saccharomyces cerevisiae; Schizosaccharomyces pombe; settings: relative to vehicle control and parental strains, data not shown
From the text: as §1
The Inventors began their screening with a library of FDA-approved drugs for their ability to improve the growth of yeast strains with temperature-sensitive mutations in the NIPBL homologs or orthologs. These included the scc2-4 (Nipped-B) mutation, the smc3-42 (cohesin) mutation, mcd1-1 (cohesin) and pds5-1 (Pds5 cohesion maintenance factor) mutation in Saccharomyces cerevisiae, and the mis4-242 (Nipped-B) mutation, and rad21-K1 (cohesin) mutation in Schizosaccharomyces pombe. […] Compounds that improved the growth rate and/or growth maxima of one or more of the mutant strains relative to the parental strains were retested. An improvement in growth rate was defined as a reproducible increase in either the rate of cell division of a mutant yeast strain during the logarithmic growth or the maximal culture density or both as determined by taking the optical density of the culture every 30 min relative to a vehicle control, and the wild-type yeast controls. […] For this reason, Indomethacin and Acemetacin were chosen for further evaluation.

[3] = tested on: Drosophila cells (ML-DmBG3)
Nipped-B mRNA = experiment: Nipped-B RNA levels in cultured ML-DmBG3 cells by quantitative RT-PCR; type: cell-based, Drosophila; settings: FIG. 3; for effect on Nipped-B RNA in Nipped-B RNAi cells: ML-DmBG3 cells treated with double-stranded RNA to destabilize Nipped-B RNA; for Nipped-B gene RNA transcripts: ML-DmBG3 cells, treatment for 48 hours, RpL32 as standard
From the text: as §1

[4] = tested on: Drosophila ct^K mutation in the cut gene (Nipped-B dosage sensitive); experiment: ct^K wing margin-nicking phenotype after feeding larvae; type: in vivo; settings: in food from early larval stages (hatching) until pupariation; vs solvent control; FIG. 2
From the text: Controls were feed the solvent that was used to dissolve the compounds (DMSO for Indomethacin, PBS for Acemetacin).
as §1

cohesin-dependent genes = experiment: Effect of cohesin depletion on expression of other genes in cultured Drosophila cells; type: cell-based; settings: not shown
From the text: as §1

Nipbl mRNA = Nipbl mRNA in C2C12 myogenic cells by RT-PCR; type: cell-based, mouse; settings: Gapdh as standard, FIG. 4A
From the text: as §1
(§2) Expression of these and other adipogenic genes is reduced in Nipbl +/− mice (Kawauchi et al. (2009) PLoS Genet.; 5(9):e1000650), which may explain their reduced fat levels, and potentially why individuals with CdLS tend to be lean.

Pparg = Pparg expression in C2C12 myogenic cells by RT-PCR; type: cell-based, mouse; settings: treatment for 3 days, FIG. 4E
From the text: as §1, §2

Cepba = Cepba expression in C2C12 myogenic cells by RT-PCR; type: cell-based, mouse; settings: treatment for 3 days, FIG. 4D
From the text: as §1, §2

Myod1 = Myod1 expression in C2C12 myogenic cells by RT-PCR; type: cell-based, mouse; settings: treatment for 3 days, FIG. 4B
From the text: as §1, §2

mesenchymal stem cells = settings: by increasing expression of C/EBPβ and PPARγ2 independently of COX inhibition (Styner et al. 2010); cited from earlier work
Myog = Myog expression in C2C12 myogenic cells by RT-PCR; type: cell-based, mouse; settings: treatment for 3 days, FIG. 4C
From the text: as §1, §2

Row | Structure (SMILES) | N^spl-1 eye phenotype (eye size) [1] | growth rate and/or growth maxima of mutant yeast strains [2] | toxicity [3] | effect on Nipped-B RNA in Nipped-B RNAi cells (Nipped-B mRNA) | Nipped-B gene RNA transcripts (Nipped-B mRNA) | occurrence of wing nicking defect (ct^K) [4] | effect of cohesin depletion on expression of other genes (cohesin-dependent genes) | expression of Nipbl (Nipbl mRNA) | expression of Pparg adipogenic gene (Pparg) | expression of Cepba adipogenic gene (Cepba) | expression of Myod1 myogenic gene (Myod1) | adipogenesis (mesenchymal stem cells) | expression of Myog myogenic gene (Myog)
1 | COc1ccc2c(c1)c(CC(=O)OCC(=O)O)c(C)n2C(=O)c1ccc(Cl)cc1 [Acemetacin] | enhances the N^spl-1 phenotype, decreasing the size of the eye | improved the growth of the mutant strains | some toxicity | blocked by Nipped-B RNAi | increase Nipped-B gene RNA transcripts | reducing the occurrence of this developmental defect | reduce the effect of cohesin depletion | – | – | – | – | – | –
2 | COc1ccc2c(c1)c(CC(=O)O)c(C)n2C(=O)c1ccc(Cl)cc1 [Indomethacin] | – | improved the growth of the mutant strains | – | blocked by Nipped-B RNAi | increase Nipped-B gene RNA transcripts | reducing the occurrence of this developmental defect | reduce the effect of cohesin depletion | increases expression | increased expression | increased expression | reduced expression | promotes adipogenesis | reduced expression

— US9138424B2, “Methods and compositions for treating cornelia de lange syndrome” (Saint Louis University, priority 2012, dated 2015)
